In ChEMBL document CHEMBL4304800, “C4-Phenylthio β-lactams: Effect of the chirality of the β-lactam ring on antimicrobial activity” (2019):
In brackets after ≈: the same amount, converted by molar mass.

Experiments:
Type in all cases: functional
[1] = tested on: Moraxella catarrhalis; experiment: Bactericidal activity against serine beta-lactamase producing Moraxella catarrhalis incubated in MH broth for 24 to 48 hrs by microbroth dilution method
[2] = tested on: Mycobacterium tuberculosis; experiment: Antitubercular activity against serine beta-lactamase producing Mycobacterium tuberculosis H37Rv after 14 days in presence of middlebrook 7H9/BSA medium by eleven fold serial dilution method; conditions: 336 h
[3] = tested on: Mycobacterium tuberculosis; experiment: Antitubercular activity against serine beta-lactamase producing Mycobacterium tuberculosis H37Rv after 14 days in presence of GAST/Fe medium by eleven fold serial dilution method; conditions: 336 h

| Compound | MBC [1] [µg/mL] | MIC [1] [µg/mL] | MIC99 [2] [µg/mL] | MIC99 [3] [µg/mL] |
| --- | --- | --- | --- | --- |
| O=C1CC([Se]c2ccccc2)N1C(=O)NCc1ccccc1 (racemic) | 12.5 (≈ 34.8 µM) | 12.5 (≈ 34.8 µM) | 25 | – |
| C[C@H](NC(=O)N1C(=O)C[C@@H]1Sc1ccc(F)c(Cl)c1)c1ccccc1 | 25 (≈ 66 µM) | 25 (≈ 66 µM) | 25 | 1.5 |
| C[C@H](NC(=O)N1C(=O)C[C@@H]1Sc1ccccc1F)c1ccccc1 | 200 (≈ 581 µM) | 25 (≈ 72.6 µM) | 25 | 6.2 |
| C[C@@H](NC(=O)N1C(=O)C[C@H]1Sc1ccccc1F)c1ccccc1 | 25 (≈ 72.6 µM) | 12.5 (≈ 36.3 µM) | 25 | 12.5 |
| C[C@@H](NC(=O)N1C(=O)C[C@H]1Sc1ccc(F)cc1Cl)c1ccccc1 | 25 (≈ 66 µM) | 25 (≈ 66 µM) | 50 | 1.5 |
| C[C@@H](NC(=O)N1C(=O)C[C@H]1Sc1ccc(F)c(F)c1)c1ccccc1 | 12.5 (≈ 34.5 µM) | 12.5 (≈ 34.5 µM) | ≥ 100 | 0.7 |
| C[C@@H](NC(=O)N1C(=O)C[C@@H]1Sc1ccc(F)c(Cl)c1)c1ccccc1 | 25 (≈ 66 µM) | 25 (≈ 66 µM) | 25 | 1.5 |
| COc1ccc(SC2CC(=O)N2C(=O)NCc2ccccc2)cc1 (racemic) | – | – | 125 | – |
| O=C1CC(Sc2ccc(F)cc2)N1C(=O)NCc1ccccc1 (racemic) | – | – | 6.2 | – |
| C[C@H](NC(=O)N1C(=O)C[C@H]1[Se]c1ccccc1)c1ccccc1 | 50 (≈ 134 µM) | 25 (≈ 67 µM) | 25 | 6.2 |
| C[C@H](NC(=O)N1C(=O)C[C@H]1Sc1ccccc1F)c1ccccc1 | 50 (≈ 145 µM) | 50 (≈ 145 µM) | 50 | 12.5 |
| O=C1CC(Sc2ccc(F)c(F)c2)N1C(=O)NCc1ccccc1 (racemic) | – | – | 6.2 | – |
| O=C1CC(Sc2ccc(F)c(Cl)c2)N1 (racemic) | – | – | – | 0.7 |
| COc1ccccc1S[C@H]1CC(=O)N1C(=O)N[C@@H](C)c1ccccc1 | 50 (≈ 140 µM) | 50 (≈ 140 µM) | 25 | 6.2 |
| C[C@H](NC(=O)N1C(=O)C[C@@H]1Sc1ccc(F)cc1F)c1ccccc1 | 12.5 (≈ 34.5 µM) | 12.5 (≈ 34.5 µM) | 12.5 | 0.7 |
| O=C1CC(Sc2c(F)c(F)c(F)c(F)c2F)N1 (racemic) | – | – | > 100 | – |
| C[C@H](NC(=O)N1C(=O)C[C@@H]1[Se]c1ccccc1)c1ccccc1 | 50 (≈ 134 µM) | 25 (≈ 67 µM) | 25 | 6.2 |
| O=C1CC(Sc2ccc(F)cc2F)N1 (racemic) | 3.1 (≈ 14.4 µM) | – | 3.1 | – |
| C[C@@H](NC(=O)N1C(=O)C[C@H]1Sc1ccc(F)cc1)c1ccccc1 | 25 (≈ 72.6 µM) | 25 (≈ 72.6 µM) | 50 | 25 |
| C[C@@H](NC(=O)N1C(=O)C[C@@H]1Sc1ccc(F)c(F)c1)c1ccccc1 | 25 (≈ 69 µM) | 25 (≈ 69 µM) | > 100 | 0.7 |
| O=C1CC(Sc2ccccc2F)N1 (racemic) | – | – | 100 | – |
| C[C@H](NC(=O)N1C(=O)C[C@@H]1Sc1c(F)c(F)c(F)c(F)c1F)c1ccccc1 | 6.2 (≈ 14.9 µM) | 6.2 (≈ 14.9 µM) | 100 | 0.7 |
| C[C@@H](NC(=O)N1C(=O)C[C@H]1Sc1ccc(C(F)(F)F)cc1)c1ccccc1 | 200 (≈ 507 µM) | 200 (≈ 507 µM) | 100 | – |
| O=C1CC(Sc2ccc(F)cc2)N1 (racemic) | – | – | > 100 | – |
| C[C@@H](NC(=O)N1C(=O)C[C@H]1[Se]c1ccccc1)c1ccccc1 | 50 (≈ 134 µM) | 25 (≈ 67 µM) | 25 | 12.5 |

| Compound | MBC [1] [µg/mL] | MIC [1] [µg/mL] | MIC99 [2] [µg/mL] | MIC99 [3] [µg/mL] |
| --- | --- | --- | --- | --- |
| COc1ccc(SC2CC(=O)N2)cc1 (racemic) | 200 (≈ 956 µM) | > 200 | 100 | – |
| COc1ccc(S[C@@H]2CC(=O)N2C(=O)N[C@H](C)c2ccccc2)cc1 | 50 (≈ 140 µM) | 50 (≈ 140 µM) | 100 | 25 |
| COc1ccccc1S[C@@H]1CC(=O)N1C(=O)N[C@H](C)c1ccccc1 | – | > 200 | > 100 | 25 |
| C[C@H](NC(=O)N1C(=O)C[C@@H]1Sc1ccc(F)cc1Cl)c1ccccc1 | 50 (≈ 132 µM) | 50 (≈ 132 µM) | 25 | 1.5 |
| COc1ccccc1S[C@@H]1CC(=O)N1C(=O)N[C@@H](C)c1ccccc1 | 100 (≈ 281 µM) | 100 (≈ 281 µM) | 100 | 25 |
| C[C@H](NC(=O)N1C(=O)C[C@H]1Sc1ccc(C(F)(F)F)cc1)c1ccccc1 | 200 (≈ 507 µM) | 200 (≈ 507 µM) | 100 | – |
| C[C@@H](NC(=O)N1C(=O)C[C@H]1Sc1ccc(F)c(Cl)c1)c1ccccc1 | 25 (≈ 66 µM) | 25 (≈ 66 µM) | 25 | 1.5 |
| O=C1CC([Se]c2ccccc2)N1 (racemic) | 6.2 (≈ 27.4 µM) | 6.2 (≈ 27.4 µM) | 25 | – |
| O=C1CC(Sc2ccc(F)c(Cl)c2)N1C(=O)NCc1ccccc1 (racemic) | 6.2 (≈ 17 µM) | 6.2 (≈ 17 µM) | – | – |
| COc1ccc(S[C@H]2CC(=O)N2C(=O)N[C@H](C)c2ccccc2)cc1 | 50 (≈ 140 µM) | 50 (≈ 140 µM) | 100 | 25 |
| C[C@@H](NC(=O)N1C(=O)C[C@@H]1Sc1ccc(C(F)(F)F)cc1)c1ccccc1 | 200 (≈ 507 µM) | 200 (≈ 507 µM) | 100 | – |
| C[C@H](NC(=O)N1C(=O)C[C@H]1Sc1ccc(F)cc1Cl)c1ccccc1 | 200 (≈ 528 µM) | 200 (≈ 528 µM) | 37.5 | 1.5 |
| O=C1CC(Sc2ccccc2F)N1C(=O)NCc1ccccc1 (racemic) | – | – | 25 | – |
| C[C@@H](NC(=O)N1C(=O)C[C@@H]1Sc1ccccc1F)c1ccccc1 | 50 (≈ 145 µM) | 25 (≈ 72.6 µM) | 25 | 12.5 |
| COc1ccccc1S[C@H]1CC(=O)N1C(=O)N[C@H](C)c1ccccc1 | 50 (≈ 140 µM) | 50 (≈ 140 µM) | 50 | 25 |
| O=C1CC(Sc2ccc(F)cc2F)N1C(=O)NCc1ccccc1 (racemic) | 1.6 (≈ 4.59 µM) | 1.6 (≈ 4.59 µM) | 100 | – |
| C[C@H](NC(=O)N1C(=O)C[C@H]1Sc1ccc(F)c(Cl)c1)c1ccccc1 | 200 (≈ 528 µM) | 200 (≈ 528 µM) | 25 | 1.5 |
| COc1ccccc1SC1CC(=O)N1 (racemic) | – | – | > 250 | – |
| COc1ccc(S[C@@H]2CC(=O)N2C(=O)N[C@@H](C)c2ccccc2)cc1 | 50 (≈ 140 µM) | 50 (≈ 140 µM) | 50 | 25 |
| COc1ccc(S[C@H]2CC(=O)N2C(=O)N[C@@H](C)c2ccccc2)cc1 | 50 (≈ 140 µM) | 50 (≈ 140 µM) | > 50 | 25 |
| O=C1CC(Sc2ccc(C(F)(F)F)cc2)N1 (racemic) | – | – | 25 | – |
| CC[C@H]1OC(=O)[C@H](C)[C@@H](O[C@H]2C[C@@](C)(OC)[C@@H](O)[C@H](C)O2)[C@H](C)[C@@H](O[C@@H]2O[C@H](C)C[C@H](N(C)C)[C@H]2O)[C@](C)(O)C[C@@H](C)CN(C)[C@H](C)[C@@H](O)[C@]1(C)O [AZITHROMYCIN] | 0.063 (≈ 0.0841 µM) | 0.125 (≈ 0.167 µM) | – | – |
| O=C1CC(Sc2ccc(F)cc2Cl)N1 (racemic) | – | – | 25 | – |
| COc1ccccc1SC1CC(=O)N1C(=O)NCc1ccccc1 (racemic) | – | – | 188 | – |
